Tests used:
[1] = tested on: HepG2 (human hepatocellular carcinoma cell line); assay: MTT anti-proliferative assay, HepG2; format: cell-based; conditions: means ± SD, n = 3; for IC50: Homo sapiens, HepG2, 48 h incubation
Excerpt: (§1) The anti-proliferative activities against five human cancer cell lines, including HCT116 (human colorectal cancer cell line), MCF-7 (human breast cancer cell line), SW620 (human colorectal cancer cell line), BEL7402 (human hepatocellular carcinoma cell line), and HepG2 (human hepatocellular carcinoma cell line) were established for all the target compounds using the MTT assay.
(§2) The propidium iodide (PI) and Annexin V-FITC apoptosis detection kit were purchased from Invitrogen (Eugene, OR, United States). 3-(4,5-Dimethylthiazol-2-yl)-2,5-diphenyl-2H-tetrazolium bromide (MTT) was purchased from Sigma-Aldrich Co. (St. Louis, MO, United States). All human cell lines were used in this study, colorectal cancer cell HCT116, colorectal cancer cell SW620, breast cancer cell MCF-7, liver hepatocellular carcinoma cell BEL7402, liver hepatocellular carcinoma HepG2 and normal liver cell L02 were initially purchased from American Type Culture Collection (ATCC, Manassas, VA, United States). RPMI-1640 media, Dulbecco’s modified Eagle’s medium (DMEM), and foetal bovine serum (FBS) were provided from Gibco Company (Grand Island, NY, United States). Cell line MCF-7 and HepG2 were cultivated in DMEM containing 10% (v/v) heat-inactivated FBS, 100 units/ml penicillin and […] streptomycin (Grand Island, NY, United States). Cell lines HCT116, BEL7402, SW620, and L02 were cultivated in RPMI 1640 medium containing 10% (v/v) heat-inactivated FBS, 100 units/ml penicillin, and […] streptomycin. The cells were incubated at 37°C under a 5% CO2 and 90% relative humidity (RH) atmosphere.
(§3) Stock solutions were prepared by diluting target compounds in DMSO at concentrations (1.25, 2.5, 5, and 10 mM). The stock solution was then diluted (1.25, 2.5, 5, and 10 μM) with culture medium, and the concentration of DMSO was controlled not to exceed 0.1%.
(§4) Place the cells in a 96-well plate at an appropriate density to ensure exponential growth (1 × 10^4–1.2×10^4 cells per well) throughout the experiment, and then allow the cells to adhere for 24 h. The cells were then treated with continuous concentrations of each compound (1.25, 2.5, 5, and 10 μM) for 48 h. After 48 h of incubation, 15 μl of MTT solution was added to each well, and the final concentration was 2 mg/ml. Then incubate for another 4 h. After incubation, remove the MTT solution and add […] of DMSO to each well for staining. Shake vigorously for 10 min at room temperature to ensure complete dissolution. The optical density (OD) was read on a microplate reader (ELx 800, BioTek, Highland Park, Winooski, VT, United States) with a wavelength of 492 nm, and then the data was analyzed.

[2] = tested on: MCF-7 (human breast cancer cell line); assay: MTT anti-proliferative assay, MCF-7; format: cell-based; conditions: means ± SD, n = 3; for IC50: Homo sapiens, MCF7, 48 h incubation
Excerpt: as §1, §2, §3, §4

[3] = tested on: HCT116 (human colorectal cancer cell line); assay: MTT anti-proliferative assay, HCT116; format: cell-based; conditions: means ± SD, n = 3; for IC50: Homo sapiens, HCT-116, 48 h incubation
Excerpt: as §1, §2, §3, §4

[4] = tested on: SW620 (human colorectal cancer cell line); assay: MTT anti-proliferative assay, SW620; format: cell-based; conditions: means ± SD, n = 3; for IC50: Homo sapiens, SW-620, 48 h incubation
Excerpt: as §1, §2, §3, §4

[5] = tested on: L02 (human normal liver cells); assay: Cytotoxicity against normal cell line L02; format: cell-based
Excerpt: The lack of selectivity between normal and cancer cells is one of the main limitations of antitumor drugs ([Dy and Adjei, 2013]). Therefore, we evaluated the cytotoxicity of compounds B2, and E in normal cell lines L02 (human normal liver cells) to determine the selectivity index (ratio of cytotoxicity in L02 cells compared to that in cancer cells). […] Therefore, this compound was chosen for further biological studies.
as §2, §3, §4

[6] = tested on: BEL7402 (human hepatocellular carcinoma cell line); assay: MTT anti-proliferative assay, BEL7402; format: cell-based; conditions: means ± SD, n = 3; for IC50: Homo sapiens, Bel-7402, 48 h incubation
Excerpt: as §1, §2, §3, §4

Row | SMILES | IC50 [1] [µM] | IC50 [2] [µM] | IC50 [3] [µM] | IC50 [4] [µM] | IC50 ([5]; Homo sapiens, normal cell line L02) [µM] | Selectivity index BEL7402 ([5]; IC50 on normal cells (L02)/IC50 on tumour cells (BEL7402)) | Selectivity index HCT116 ([5]; IC50 on normal cells (L02)/IC50 on tumour cells (HCT116)) | Selectivity index SW620 ([5]; IC50 on normal cells (L02)/IC50 on tumour cells (SW620)) | IC50 [6] [µM] | melting point [°C] | IC50 values HepG2 ([1]; 48 h incubation) | IC50 values MCF-7 ([2]; 48 h incubation) | IC50 values HCT116 ([3]; 48 h incubation) | IC50 values SW620 ([4]; 48 h incubation) | IC50 values BEL7402 ([6]; 48 h incubation)
1 | CC1(C)CC[C@]2(C(=O)OCc3nnc(-c4ccc(F)cc4)o3)[C@H](O)C[C@]3(C)C(=CC[C@@H]4[C@@]5(C)CC[C@H](O)[C@@](C)(C=O)[C@@H]5CC[C@]43C)[C@@H]2C1 [Compound B2, (5-(4-fluorophenyl)-1,3,4-oxadiazol-2-yl)methyl (4aR,5R,6aS,6bR,8aR,9S,10S,12aR,12bR,14bS)-9-formyl-5,10-dihydroxy-2,2,6a,6b,9,12a-hexamethyl-1,3,4,5,6,6a,6b,7,8,8a,9,10,11,12,12a,12b,13,14b-octadecahydropicene-4a (2H)-carboxylate] | 4.59 ± 1.73 | 3.99 ± 1.28 | 3.12 ± 0.87 | 7.75 ± 1.43 | > 10 | > 3.52 | > 3.20 | > 1.29 | 2.84 ± 0.66 | 122 to 124 |  |  |  |  | 
2 | CC1(C)CC[C@]2(C(=O)OCCn3ncn(-c4ccc(Cl)c(Cl)c4)c3=O)[C@H](O)C[C@]3(C)C(=CC[C@@H]4[C@@]5(C)CC[C@H](O)[C@@](C)(C=O)[C@@H]5CC[C@]43C)[C@@H]2C1 [Compound C4, 2-(4-(3,4-dichlorophenyl)-5-oxo-4,5-dihydro-1H-1,2,4-triazol-1-yl)ethyl (4aR,5R,6aS,6bR,8aR,9S,10S,12aR,12bR,14bS)-9-formyl-5,10-dihydroxy-2,2,6a,6b,9,12a-hexamethyl-1,3,4,5,6,6a,6b,7,8,8a,9,10,11,12,12a,12b,13,14b-octadecahydropicene-4a (2H)-carboxylate] | > 10 | > 10 | > 10 | > 10 |  |  |  |  | > 10 | 187 to 189 |  |  |  |  | 
3 | COc1ccc(-n2cnn(CCOC(=O)[C@]34CCC(C)(C)C[C@H]3C3=CC[C@@H]5[C@@]6(C)CC[C@H](O)[C@@](C)(C=O)[C@@H]6CC[C@@]5(C)[C@]3(C)C[C@H]4O)c2=O)cc1 [Compound C5, 2-(4-(4-methoxyphenyl)-5-oxo-4,5-dihydro-1H-1,2,4-triazol-1-yl)ethyl (4aR,5R,6aS,6bR,8aR,9S,10S,12aR,12bR,14bS)-9-formyl-5,10-dihydroxy-2,2,6a,6b,9,12a-hexamethyl-1,3,4,5,6,6a,6b,7,8,8a,9,10,11,12,12a,12b,13,14b-octadecahydropicene-4a (2H)-carboxylate] | > 10 | > 10 | 3.21 ± 1.07 | 7.25 ± 1.72 |  |  |  |  | > 10 | 186 to 188 |  |  |  |  | 
4 | CC1(C)CC[C@]2(C(=O)OCc3cc(-c4ccccc4)no3)[C@H](O)C[C@]3(C)C(=CC[C@@H]4[C@@]5(C)CC[C@H](O)[C@@](C)(C=O)[C@@H]5CC[C@]43C)[C@@H]2C1 [D, (3-phenylisoxazol-5-yl)methyl (4aR,5R,6aS,6bR,8aR,9S,10S,12aR,12bR,14bS)-9-formyl-5,10-dihydroxy-2,2,6a,6b,9,12a-hexamethyl-1,3,4,5,6,6a,6b,7,8,8a,9,10,11,12,12a,12b,13,14b-octadecahydropicene-4a (2H)-carboxylate] | > 10 | > 10 | > 10 | > 10 |  |  |  |  | > 10 | 176 to 178 | no strong activity | no strong activity | no strong activity | no strong activity | no strong activity

Reference: article PMC9490060, “Synthesis and evaluation of anticancer activity of quillaic acid derivatives: A cell cycle arrest and apoptosis inducer through NF-κB and MAPK pathways” (Frontiers in Chemistry, 2022)
